Experimental data taken from US9096591B2, “Tetracyclic compounds” (Medivation Technologies, Inc., priority 2007, dated 2015).
Like-named read-outs stand apart in the source and are kept apart here.

What was measured:
[1] = target: T1, human recombinant histamine H1 receptor (Homo sapiens, UniProt P35367); test: Histamine H1 radioligand binding ([3H]Pyrilamine)
T1 construct: expressed in transfected cells; host or cells: CHO cells
In short: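 CHO-expressed receptor in modified Tris-HCl buffer (50 mM, pH 7.4; 2 mM MgCl2, 100 mM NaCl, 250 mM sucrose); bound ligand measured after filtration and washing.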

[2] = target: T2, human recombinant histamine H2 receptor (Homo sapiens, UniProt P25021); test: Histamine H2 radioligand binding ([125I]Aminopotentidine)
T2 construct: expressed in transfected cells; host or cells: CHO-K1 cells
T2 sequence (P25021 whole entry): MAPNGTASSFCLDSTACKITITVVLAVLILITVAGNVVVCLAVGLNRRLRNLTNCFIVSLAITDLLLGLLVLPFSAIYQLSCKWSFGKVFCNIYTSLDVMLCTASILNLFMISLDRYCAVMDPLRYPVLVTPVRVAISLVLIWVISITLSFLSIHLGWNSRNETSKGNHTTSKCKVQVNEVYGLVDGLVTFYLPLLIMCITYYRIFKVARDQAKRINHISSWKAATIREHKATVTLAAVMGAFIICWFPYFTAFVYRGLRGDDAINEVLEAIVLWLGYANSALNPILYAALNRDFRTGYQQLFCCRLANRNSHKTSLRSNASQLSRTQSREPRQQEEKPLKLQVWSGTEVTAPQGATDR
In short: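 This radioligand binding assay measured displacement of [125I]Aminopotentidine from recombinant human histamine H2 receptors. Compounds were dissolved in 1% DMSO vehicle. Specific binding was calculated by subtracting non-specific binding, defined using 3 μM Tiotidine, and activity was reported as percentage inhibition of that specific binding.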

[3] = target: T3, human recombinant adrenergic α1D receptor (Homo sapiens, UniProt P25100); test: Adrenergic α1D radioligand binding ([3H]Prozosin); parameters: Inhibition of ligand binding, Adren. alpha1D: concentration or dose not given beside the values; conditions: percent inhibition of specific binding
T3 construct: expressed in transfected cells; host or cells: HEK-293 cells
T3 sequence (P25100 1-572): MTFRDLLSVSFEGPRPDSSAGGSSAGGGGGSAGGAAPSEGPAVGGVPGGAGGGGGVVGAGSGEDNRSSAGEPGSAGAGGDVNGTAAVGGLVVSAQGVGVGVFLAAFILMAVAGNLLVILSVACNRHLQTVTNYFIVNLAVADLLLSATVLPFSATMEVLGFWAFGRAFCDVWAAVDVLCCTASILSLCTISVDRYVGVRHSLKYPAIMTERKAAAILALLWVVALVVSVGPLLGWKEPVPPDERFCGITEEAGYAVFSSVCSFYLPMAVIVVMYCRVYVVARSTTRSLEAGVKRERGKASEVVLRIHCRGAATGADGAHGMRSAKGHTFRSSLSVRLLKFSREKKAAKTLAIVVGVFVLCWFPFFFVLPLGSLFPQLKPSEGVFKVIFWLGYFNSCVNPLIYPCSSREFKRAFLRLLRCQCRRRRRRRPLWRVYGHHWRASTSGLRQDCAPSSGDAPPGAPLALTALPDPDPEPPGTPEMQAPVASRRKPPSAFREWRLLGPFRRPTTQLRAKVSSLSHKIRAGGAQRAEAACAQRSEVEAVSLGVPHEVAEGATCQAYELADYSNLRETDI
Protocol: Compounds of invention were incubated with 0.6 nM [^3H]Prozosin for 60 minutes at 25° C. Non-specific binding was estimated in the presence of 10 μM phentolamine. Receptor proteins were filtered and washed, the filters were then counted to determine [^3H]Prozosin specifically bound. […] Biochemical assay results are presented as the percent inhibition of specific binding in Table 6.

[4] = target: T4, human recombinant adrenergic α2B receptor (Homo sapiens, UniProt P18089); test: Adrenergic α2B radioligand binding ([3H]Rauwolscine); parameters: Inhibition of ligand binding, Adren. alpha2B: concentration or dose not given beside the values; conditions: percent inhibition of specific binding
T4 construct: expressed in transfected cells; host or cells: CHO-K1 cells
T4 sequence (P18089 1-450): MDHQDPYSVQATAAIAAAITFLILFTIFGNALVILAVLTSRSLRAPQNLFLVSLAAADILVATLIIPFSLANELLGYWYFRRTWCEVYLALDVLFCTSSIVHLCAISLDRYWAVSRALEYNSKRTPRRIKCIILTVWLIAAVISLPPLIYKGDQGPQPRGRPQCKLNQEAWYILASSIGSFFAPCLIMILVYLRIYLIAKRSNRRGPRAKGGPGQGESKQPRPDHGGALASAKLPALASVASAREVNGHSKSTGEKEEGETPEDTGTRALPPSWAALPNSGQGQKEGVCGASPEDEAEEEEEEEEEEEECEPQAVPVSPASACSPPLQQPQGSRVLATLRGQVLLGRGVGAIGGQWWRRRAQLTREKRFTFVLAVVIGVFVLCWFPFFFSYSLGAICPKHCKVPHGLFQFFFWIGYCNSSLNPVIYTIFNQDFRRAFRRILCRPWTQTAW
In short: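 Incubation ran 60 minutes at 25 °C in modified Tris-HCl buffer (50 mM, pH 7.4, 12.5 mM MgCl2, 1 mM EDTA, 0.2% BSA) using CHO-K1-expressed human receptor.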

[5] = target: T5, human recombinant serotonin (5-Hydroxytryptamine) 5-HT2A receptor (Homo sapiens, UniProt P28223); test: Serotonin 5-HT2A radioligand binding ([3H]Ketanserin); conditions: percent inhibition of specific binding
T5 construct: expressed in transfected cells; host or cells: CHO-K1 cells
T5 sequence (P28223 whole entry): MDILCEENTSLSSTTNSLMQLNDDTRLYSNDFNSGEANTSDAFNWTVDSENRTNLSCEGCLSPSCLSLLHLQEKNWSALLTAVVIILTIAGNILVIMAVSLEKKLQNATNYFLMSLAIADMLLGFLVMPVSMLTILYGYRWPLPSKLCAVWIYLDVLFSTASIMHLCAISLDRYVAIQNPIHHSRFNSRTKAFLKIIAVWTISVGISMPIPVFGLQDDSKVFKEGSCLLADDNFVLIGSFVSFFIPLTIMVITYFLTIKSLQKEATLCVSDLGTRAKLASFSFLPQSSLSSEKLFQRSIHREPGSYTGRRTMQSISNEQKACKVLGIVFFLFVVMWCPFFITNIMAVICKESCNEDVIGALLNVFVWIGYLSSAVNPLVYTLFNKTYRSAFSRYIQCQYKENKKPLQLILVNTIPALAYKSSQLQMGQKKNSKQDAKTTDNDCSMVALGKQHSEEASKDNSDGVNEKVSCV
Protocol: Compounds of the invention were incubated with 0.5 nM [^3H]Ketanserin for 60 minutes at 25° C. Non-specific binding was estimated in the presence of 1 μM Mianserin. Receptor proteins were filtered and washed, the filters were then counted to determine [^3H]Ketanserin specifically bound. […] Biochemical assay results are presented as the percent inhibition of specific binding in Table 6.

[6] = percent inhibition of specific binding, screened at 1 μM, read-out: Inhibition of ligand binding, Hist. H1
[7] = percent inhibition of specific binding, screened at 1 μM, read-out: Inhibition of ligand binding, Hist. H2

T1 sequence (P35367 whole entry): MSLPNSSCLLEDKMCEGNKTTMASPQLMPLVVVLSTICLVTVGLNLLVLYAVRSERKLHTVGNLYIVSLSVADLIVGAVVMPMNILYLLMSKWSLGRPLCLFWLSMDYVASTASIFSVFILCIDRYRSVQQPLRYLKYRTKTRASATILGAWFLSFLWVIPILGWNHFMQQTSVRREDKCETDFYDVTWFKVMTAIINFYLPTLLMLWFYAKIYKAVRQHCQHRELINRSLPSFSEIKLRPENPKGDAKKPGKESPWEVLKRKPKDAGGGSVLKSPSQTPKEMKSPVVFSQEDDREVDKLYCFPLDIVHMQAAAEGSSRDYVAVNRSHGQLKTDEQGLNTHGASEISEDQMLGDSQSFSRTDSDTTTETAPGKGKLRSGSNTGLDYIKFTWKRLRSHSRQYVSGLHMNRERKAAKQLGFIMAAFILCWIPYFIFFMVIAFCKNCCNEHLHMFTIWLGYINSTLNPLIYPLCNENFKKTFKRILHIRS

Row | SMILES | inhibition at 1 µM [1, 6] [%] | inhibition at 1 µM [2, 7] [%] | Inhibition of ligand binding, Adren. alpha1D [3] [%] | Inhibition of ligand binding, Adren. alpha2B [4] [%] | Inhibition of ligand binding, Ser. 5-HT2A [5] [%] | inhibition at 1 µM ([1]; read-out: Histamine Binding H1, percent inhibition of specific binding) [%] | inhibition at 1 µM ([1]; read-out: Inhibition of ligand binding, Hist. H1) [%] | inhibition at 1 µM ([2]; read-out: Histamine Binding H2, percent inhibition of specific binding) [%] | inhibition at 1 µM ([2]; read-out: Inhibition of ligand binding, Hist. H2) [%] | inhibition at 0.3 µM ([2]; 0.3 μM compound, 0.1 nM [125I]Aminopotentidine, read-out: Histamine Binding H2, percent inhibition of specific binding) [%] | inhibition at 1 µM ([2]; 1 μM compound, 0.1 nM [125I]Aminopotentidine, read-out: Histamine Binding H2, percent inhibition of specific binding) [%]
1 | Cc1ccc2c(c1)c1c(n2CCc2ccc(C)nc2)CC(=O)N(C)C1 [Compound 195, 1,2-dihydro-2,8-dimethyl-5-(2-(6-methylpyridin-3-yl)ethyl)-4H-pyrido[4,3-b]indol-3(5H)-one] | 3 | 22 | 15 | 7 | −4 |  |  |  |  |  | 
2 | Cc1ccc2c(c1)c1c(n2CCc2ccccc2)CCN(C(=O)OCC(Cl)(Cl)Cl)C1 [Compound 227, 2,2,2-trichloroethyl 3,4-dihydro-8-methyl-5-phenethyl-1H-pyrido[4,3-b]indole-2(5H)-carboxylate] | -5 | 1 | 11 | 0 | −2 |  |  |  |  |  | 
3 | CN1CCc2c(c3cc(C(F)(F)F)ccc3n2CCc2ccccc2)C1 [Compound 80, 8-(trifluoromethyl)-2,3,4,5-tetrahydro-2-methyl-5-phenethyl-1H-pyrido[4,3-b]indole] | 89 | 71 | 75 | 105 | 88 |  |  |  |  |  | 
4 | CN1CCc2c(c3c(Cl)cccc3n2CCc2ccccc2)C1 [Compound 81] | 94 | 57 | 47 | 90 | 99 |  |  |  |  |  | 
5 | Cc1ccc2c(c1)c1c(n2CCC(=O)N2CCC(NC(=O)OC(C)(C)C)CC2)CCN(C)C1 [Compound 393, tert-butyl 1-(3-(1,2,3,4-tetrahydro-2,8-dimethylpyrido[4,3-b]indol-5-yl)propanoyl)piperidin-4-ylcarbamate] | 28 | 3 | 16 | 28 | 19 |  |  |  |  |  | 
6 | CN1CCc2c(c3cccc(Cl)c3n2CCc2ccccc2)C1 [Compound 83] | 97 | 97 | 92 | 96 | 100 |  |  |  |  |  | 
7 | Cc1ccc2c(c1)c1c(n2CCc2ccc(C)nc2)CCN(C)C1=O [Compound 216] |  |  | −7 | 3 | 12 | 6 | 6 | 11 | 11 |  | 
8 | Cc1ccc2c(c1)c1c(n2CCc2ccc(C(=O)O)nc2)CCNC1 [Compound 262] | 81 | -8 | 3 | −2 | 6 |  |  |  |  |  | 
9 | CN1CCc2c(c3ccc(Cl)cc3n2CCC2CCCCC2)C1 [Compound 188, 7-chloro-5-(2-cyclohexylethyl)-2,3,4,5-tetrahydro-2-methyl-1H-pyrido[4,3-b]indole] | 97 | 72 | 8 | 65 | 58 |  |  |  |  |  | 
10 | CN1CCc2c(c3cc(Cl)ccc3n2CCc2ccc(F)cc2)C1 [Compound 162, 5-(4-fluorophenethyl)-8-chloro-2,3,4,5-tetrahydro-2-methyl-1H-pyrido[4,3-b]indole] | 100 | 94 | 90 | 112 | 98 |  |  |  |  |  | 
11 | Cc1ccc(CCn2c3c(c4cc(C(F)(F)F)ccc42)CN(C)CC3)cc1 [Compound 47] | 81 | 78 | 81 | 101 | 92 |  |  |  |  |  | 
12 | Cc1ccc2c(c1)c1c(n2CCc2ccccc2)CCNC1 [Compound 228, 2,3,4,5-tetrahydro-8-methyl-5-phenethyl-1H-pyrido[4,3-b]indole] | 81 | 15 | 76 | 101 | 77 |  |  |  |  |  | 
13 | CN1CCc2c(c3ccc(Cl)cc3n2CCc2ccccc2)C1 [Compound 82] | 99 | 99 | 64 | 99 | 99 |  |  |  |  |  | 
14 | Cc1ccc(CCn2c3c(c4cc(C(F)(F)F)ccc42)CN(C)CC3)cn1 [Compound 53] | 43 | 4 | 13 | 34 | −1 |  |  |  |  |  | 
15 | Cc1ccc(C(O)Cn2c3c(c4cc(C)ccc42)CN(C)CC3)cc1 (racemic) [Compound 28, racemic-2-(1,2,3,4-tetrahydro-2,8-dimethylpyrido[4,3-b]indol-5-yl)-1-p-tolylethanol] | 85 | 84 | 89 |  |  |  |  |  |  | 40 | 58
